Molecules are shown by their SMILES.

This is an account of results in patent US4505898A, “Derivatives of acetylsalicylic acid and substituted phenylacetic acids and compositions containing them” (priority 1983, dated 1985).

Assay [1] deals with carrageenin-induced paw oedema. Kind of assay: inhibition of experimentally-induced (carrageenin) paw oedema in rats. As to conditions: rats fasted 18 hours; compound in aqueous 1% tragacanth, 25 ml/kg, 45 min before subplantar 0.1 ml 1% carrageenin; dose not given. It is filed as in vivo. The protocol:
For this purpose, the well known test for the inhibition of experimentally-induced paw oedema in rats was used. The test was carried out as follows.
The rats are fasted 18 hours prior to dosing, but water is made available to them. Test compounds are then administered in aqueous 1% tragacanth at a dose volume of 25 ml/kg body weight. One group of rats is given vehicle only at the same dose volume. Forty five minutes later, all rats are given a subplantar injection of 0.1 ml of a 1% solution of carrageenin in 0.9% saline in the left hind paw. The volume of this paw is measured before and after the carrageenin injection using a volume differential meter designed by Ugo Basile.
Anti-inflammatory activity is measured as the percentage inhibition of paw oedema in the drug treated animals compared to the controls.

For assay [2] the following is noted: background statement, no test described; cited from earlier work.

For the compound `C=CCOc1ccc(CC(=O)NC(C)C(=O)OC)cc1Cl` (racemic) [Compound 2, 4-allyloxy-3-chloro-phenylacetyl-(DL)-alanine methyl ester], the “Anti-inflammatory activity (percentage inhibition of paw oedema compared to controls)” value in assay [1] was 23.1%.

Take `CCCOc1ccc(CC(=O)O)cc1Cl` [4-n-propoxy-3-chloro-phenylacetic acid]: in assay [2], the “anti-inflammatory activity compared with Alclofenac” value is listed as “much reduced anti-inflammatory activity as compared with Alclofenac”. As to `C=CCOc1ccc(CC(=O)O)cc1Cl` [Compound 1, 4-allyloxy-3-chloro-phenylacetic acid, reference compound], the “Anti-inflammatory activity (percentage inhibition of paw oedema compared to controls)” value in assay [1] stood at 36.0%. With `C=CCOc1ccc(CC(=O)NCC(=O)O)cc1Cl` [Compound 3, 4-allyloxy-3-chloro-phenylacetyl-glycine], in assay [1], the “Anti-inflammatory activity (percentage inhibition of paw oedema compared to controls)” value is 34.6%.

As for `CCCOc1ccc(CC(=O)NCC(=O)O)cc1Cl` [Compound 4, 4-n-propoxy-3-chloro-phenylacetyl-glycine], the “Anti-inflammatory activity (percentage inhibition of paw oedema compared to controls)” value in assay [1] came to 35.2%.
